Results taken from ChEMBL document CHEMBL1268945, “Sequential cytotoxicity: a theory examined using a series of 3,5-bis(benzylidene)-1-diethylphosphono-4-oxopiperidines and related phosphonic acids” (Bioorg Med Chem Lett, 2010).
The source made the active and inactive calls. The calls are words filed in the database; no cut-off is given here.

Tests used:
HL-60 [1] = test: Cytotoxicity against human HL60 cells; type: functional
HL-60 [2] = test: Selectivity index, ratio of CC50 for normal cells to CC50 for human HL60 cells; type: functional
HSC-2 [3] = test: Cytotoxicity against human HSC2 cells; type: functional
HSC-2 [4] = test: Selectivity index, ratio of CC50 for normal cells to CC50 for human HSC2 cells; type: functional
HSC-3 [5] = test: Cytotoxicity against human HSC3 cells; type: functional
HSC-3 [6] = test: Selectivity index, ratio of CC50 for normal cells to CC50 for human HSC3 cells; type: functional
HSC-4 [7] = test: Cytotoxicity against human HSC4 cells; type: functional
HSC-4 [8] = test: Selectivity index, ratio of CC50 for normal cells to CC50 for human HSC4 cells; type: functional
[9] = Cytotoxicity against human HGF cells; type: cell-based
[10] = Cytotoxicity against human HPC cells; type: cell-based
[11] = Cytotoxicity against human HPLF cells; type: cell-based
HL-60 [12] = test: Induction of apoptosis in human HL60 cells assessed as activation of caspase 3 after 6 hrs; type: functional, cell-based
HSC-2 [13] = test: Induction of apoptosis in human HSC2 cells assessed as activation of caspase 3 after 6 hrs; type: functional, cell-based
HL-60 [14] = test: Induction of internucleosomal DNA fragmentation in human HL60 cells after 6 hrs; type: functional, cell-based
HSC-2 [15] = test: Induction of internucleosomal DNA fragmentation in human HSC2 cells after 6 hrs; type: functional, cell-based
HSC-4 [16] = test: Induction of internucleosomal DNA fragmentation in human HSC4 cells after 6 hrs; type: functional, cell-based

Row | Compound | CC50 (HL-60 [1]) | Selectivity Index (HL-60 [2]) | CC50 (HSC-2 [3]) | Selectivity Index (HSC-2 [4]) | CC50 (HSC-3 [5]) | Selectivity Index (HSC-3 [6]) | CC50 (HSC-4 [7]) | Selectivity Index (HSC-4 [8]) | CC50 [9] | CC50 [10] | CC50 [11] | Activity (HL-60 [12]) | Activity (HSC-2 [13]) | Activity (HL-60 [14]) | Activity (HSC-2 [15]) | Activity (HSC-4 [16])
1 | COc1ccc(/C=C2\CN(P(=O)(O)O)C/C(=C\c3ccc(OC)c(OC)c3)C2=O)cc1OC | 260 nM | 8.1 | 400 nM | 5.3 | 590 nM | 3.6 | 420 nM | 5 | 2600 nM | 1300 nM | 2500 nM |  |  |  |  | 
2 | COc1ccc(/C=C2\CN(P(=O)(O)O)C/C(=C\c3ccc(OC)cc3)C2=O)cc1 | 5600 nM | 12 | 1700 nM | 40 | 2200 nM | 31 | 3900 nM | 17 | 107000 nM | 54000 nM | 44000 nM |  |  |  |  | 
3 | COc1cc(/C=C2\CN(P(=O)(O)O)C/C(=C\c3cc(OC)c(OC)c(OC)c3)C2=O)cc(OC)c1OC | 60 nM | 12 | 130 nM | 6.2 | 270 nM | 3 | 120 nM | 6.7 | 880 nM | 590 nM | 1000 nM |  |  |  |  | 
4 | CCOP(=O)(OCC)N1C/C(=C\c2ccc(Cl)cc2)C(=O)/C(=C/c2ccc(Cl)cc2)C1 | 600 nM | 6.7 | 1500 nM | 2.7 | 2000 nM | 2 | 640 nM | 6.3 | 4300 nM | 2800 nM | 4800 nM |  |  |  |  | 
5 | Cc1ccc(/C=C2\CN(P(=O)(O)O)C/C(=C\c3ccc(C)cc3)C2=O)cc1 | 1100 nM | 4.6 | 760 nM | 6.7 | 950 nM | 5.4 | 960 nM | 5.3 | 5900 nM | 3300 nM | 6100 nM |  |  |  |  | 
6 | CCOP(=O)(OCC)N1C/C(=C\c2ccc(OC)c(OC)c2)C(=O)/C(=C/c2ccc(OC)c(OC)c2)C1 | 750 nM | 8.4 | 1700 nM | 3.7 | 1400 nM | 4.5 | 500 nM | 13 | 7400 nM | 6200 nM | 5300 nM |  |  |  |  | 
7 | O=C1/C(=C/c2ccc([N+](=O)[O-])cc2)CN(P(=O)(O)O)C/C1=C\c1ccc([N+](=O)[O-])cc1 | 140 nM | 21 | 180 nM | 17 | 230 nM | 13 | 130 nM | 23 | 4100 nM | 1600 nM | 3400 nM |  |  |  |  | 
8 | CCOP(=O)(OCC)N1C/C(=C\c2cc(OC)c(OC)c(OC)c2)C(=O)/C(=C/c2cc(OC)c(OC)c(OC)c2)C1 | 290 nM | 6.2 | 330 nM | 5.5 | 430 nM | 4.2 | 160 nM | 11 | 2000 nM | 1300 nM | 2200 nM |  |  |  |  | 
9 | CCOP(=O)(OCC)N1C/C(=C\c2ccc(OC)cc2)C(=O)/C(=C/c2ccc(OC)cc2)C1 | 1900 nM | 25 | 920 nM | 51 | 660 nM | 71 | 1300 nM | 36 | 53000 nM | 41000 nM | 46000 nM | Dose-dependent effect | inactive | Active | inactive | inactive
10 | CCOP(=O)(OCC)N1C/C(=C\c2ccccc2[N+](=O)[O-])C(=O)/C(=C/c2ccccc2[N+](=O)[O-])C1 | 380 nM | 37 | 1600 nM | 8.8 | 1200 nM | 12 | 1800 nM | 7.8 | 18000 nM | 8300 nM | 15000 nM |  |  |  |  | 
11 | CCOP(=O)(OCC)N1C/C(=C\c2ccc(C)cc2)C(=O)/C(=C/c2ccc(C)cc2)C1 | 3300 nM | 6.7 | 4900 nM | 4.5 | 4100 nM | 5.4 | 4600 nM | 4.8 | 28000 nM | 18000 nM | 21000 nM |  |  |  |  | 
12 | CCOP(=O)(OCC)N1C/C(=C\c2cccc([N+](=O)[O-])c2)C(=O)/C(=C/c2cccc([N+](=O)[O-])c2)C1 | 50 nM | 54 | 760 nM | 3.3 | 740 nM | 3.4 | 260 nM | 9.6 | 2200 nM | 1500 nM | 3900 nM |  |  |  |  | 
13 | N[C@@H](Cc1ccc(N(CCCl)CCCl)cc1)C(=O)O [MELPHALAN] | 1400 nM | 150 | 8700 nM | 24 | 25000 nM | 8.4 | 32000 nM | 6.6 | 161000 nM | 269000 nM | 199000 nM |  |  |  |  | 
14 | O=C1/C(=C/c2ccc(Cl)cc2)CN(P(=O)(O)O)C/C1=C\c1ccc(Cl)cc1 | 460 nM | 9.8 | 420 nM | 11 | 410 nM | 11 | 720 nM | 6.3 | 5900 nM | 2600 nM | 5100 nM |  |  |  |  | 
15 | O=C1/C(=C/c2cccc([N+](=O)[O-])c2)CN(P(=O)(O)O)C/C1=C\c1cccc([N+](=O)[O-])c1 | 90 nM | 30 | 200 nM | 13 | 180 nM | 14 | 140 nM | 19 | 2300 nM | 2200 nM | 3300 nM |  |  |  |  | 
16 | CCOP(=O)(OCC)N1C/C(=C\c2ccccc2)C(=O)/C(=C/c2ccccc2)C1 | 610 nM | 15 | 2400 nM | 3.8 | 2500 nM | 3.7 | 1100 nM | 8.4 | 11000 nM | 6500 nM | 10000 nM |  |  |  |  | 
17 | O=C1/C(=C/c2ccccc2)CN(P(=O)(O)O)C/C1=C\c1ccccc1 | 460 nM | 12 | 770 nM | 7.4 | 980 nM | 5.8 | 570 nM | 10 | 6900 nM | 3200 nM | 7000 nM |  |  |  |  | 
18 | CCOP(=O)(OCC)N1C/C(=C\c2ccc([N+](=O)[O-])cc2)C(=O)/C(=C/c2ccc([N+](=O)[O-])cc2)C1 | 140 nM | 17 | 330 nM | 7.3 | 380 nM | 6.3 | 720 nM | 3.3 | 3100 nM | 1900 nM | 2200 nM |  |  |  |  | 
19 | O=C1/C(=C/c2ccccc2[N+](=O)[O-])CN(P(=O)(O)O)C/C1=C\c1ccccc1[N+](=O)[O-] | 70 nM | 30 | 170 nM | 13 | 320 nM | 6.9 | 100 nM | 22 | 1400 nM | 2100 nM | 3000 nM |  |  |  |  | 
